Data reported in US11690845B2, “Methods of administering elagolix” (priority 2020, dated 2023).
Where two headings read alike, the source gives them in different places.

Legend:
[1] = tested on: CYP3A; assay: Substrate of / metabolism by CYP3A; type: in vitro ADME
[2] = Drug interaction studies: pharmacokinetics of co-administered drug in the presence of elagolix; type: in vivo, human
Method: Drug interaction studies were performed with elagolix and other drugs likely to be co-administered and with drugs commonly used as probes for pharmacokinetic interactions. Tables 7 and 8 summarize the pharmacokinetic effects when elagolix was co-administered with these drugs.

[3] = Drug interactions: effects of ORIAHNN on plasma exposure of other drugs; conditions: co-administration of ORIAHNN
[4] = biological target: CYP2C19 (Homo sapiens, UniProt P33261); assay: In vitro studies: CYP2C19 inhibition; type: in vitro ADME
[5] = Pharmacogenomics: elagolix plasma concentrations by SLCO1B1 521T>C genotype; type: in vivo, human; conditions: SLCO1B1 521 C/C genotype
Source text: Hepatic uptake of elagolix involves the OATP1B1 transporter protein. Higher plasma concentrations of elagolix have been observed in patients who have two reduced function alleles of the gene that encodes OATP1B1 (SLCO1B1 521T>C) (these patients are likely to have reduced hepatic uptake of elagolix; and thus, higher plasma elagolix concentrations). The frequency of this SLCO1B1 521 C/C genotype is generally less than […] in most racial/ethnic groups. Women with this genotype are expected to have approximately 2-fold higher elagolix mean concentrations compared to women with normal transporter function (i.e., SLCO1B1 521T/T genotype). Adverse effects of elagolix have not been fully evaluated in subjects who have two reduced function alleles of the gene that encodes OATP1B1 (SLCO1B1 521T>C). The above listed examples should not be deemed to limit the scope of the invention as claimed.

[6] = Drug interaction studies: pharmacokinetics of elagolix in the presence of co-administered drugs; type: in vivo, human; conditions: for Ratio (90% CI) AUC of elagolix, co-administration vs elagolix alone / Ratio (90% CI) Cmax of elagolix, co-administration vs elagolix alone: elagolix 150 mg single dose
Method: Drug interaction studies were performed with elagolix and other drugs likely to be co-administered and with drugs commonly used as probes for pharmacokinetic interactions.

[7] = tested on: pregnant rats; assay: Embryofetal development study in the rat; type: in vivo
Method: (§2) Embryofetal development studies were conducted in the rat and rabbit. Elagolix was administered by oral gavage to pregnant rats (25 animals/dose) at doses of 0, 300, 600 and 1200 mg/kg/day and to rabbits (20 animals/dose) at doses of 0, 100, 150, and 200 mg/kg/day, during the period of organogenesis (gestation day 6-17 in the rat and gestation day 7-20 in the rabbit).

[8] = tested on: rabbits; assay: Embryofetal development study in the rabbit; type: in vivo
Method: as §2

[9] = biological target: P-gp (Homo sapiens, UniProt P08183); assay: Substrate of P-gp; type: in vitro ADME
[10] = tested on: CYP3A4; assay: In vitro studies: CYP3A4 (CYP3A) induction; type: in vitro ADME; conditions: in vitro studies (CYP3A4; b159: CYP3A)
[11] = biological target: T1, rat gonadotropin-releasing hormone (GnRH) receptor (Rattus norvegicus, UniProt P30969); assay: Binding to rat versus human GnRH receptor; conditions: rat vs human GnRH receptor
T1 sequence (P30969 1-327): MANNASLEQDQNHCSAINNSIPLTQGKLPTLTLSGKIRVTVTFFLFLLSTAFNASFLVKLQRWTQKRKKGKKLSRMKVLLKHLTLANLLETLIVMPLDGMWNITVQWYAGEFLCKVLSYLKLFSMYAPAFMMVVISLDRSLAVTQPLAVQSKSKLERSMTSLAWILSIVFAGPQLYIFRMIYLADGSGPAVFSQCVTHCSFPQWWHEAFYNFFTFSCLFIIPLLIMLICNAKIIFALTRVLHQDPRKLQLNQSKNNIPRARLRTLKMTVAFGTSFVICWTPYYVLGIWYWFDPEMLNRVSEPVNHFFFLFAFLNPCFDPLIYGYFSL

[12] = biological target: T2, OATP1B1 (Homo sapiens, UniProt Q9Y6L6); assay: Substrate of OATP1B1; type: in vitro ADME
T2 sequence (Q9Y6L6 1-691): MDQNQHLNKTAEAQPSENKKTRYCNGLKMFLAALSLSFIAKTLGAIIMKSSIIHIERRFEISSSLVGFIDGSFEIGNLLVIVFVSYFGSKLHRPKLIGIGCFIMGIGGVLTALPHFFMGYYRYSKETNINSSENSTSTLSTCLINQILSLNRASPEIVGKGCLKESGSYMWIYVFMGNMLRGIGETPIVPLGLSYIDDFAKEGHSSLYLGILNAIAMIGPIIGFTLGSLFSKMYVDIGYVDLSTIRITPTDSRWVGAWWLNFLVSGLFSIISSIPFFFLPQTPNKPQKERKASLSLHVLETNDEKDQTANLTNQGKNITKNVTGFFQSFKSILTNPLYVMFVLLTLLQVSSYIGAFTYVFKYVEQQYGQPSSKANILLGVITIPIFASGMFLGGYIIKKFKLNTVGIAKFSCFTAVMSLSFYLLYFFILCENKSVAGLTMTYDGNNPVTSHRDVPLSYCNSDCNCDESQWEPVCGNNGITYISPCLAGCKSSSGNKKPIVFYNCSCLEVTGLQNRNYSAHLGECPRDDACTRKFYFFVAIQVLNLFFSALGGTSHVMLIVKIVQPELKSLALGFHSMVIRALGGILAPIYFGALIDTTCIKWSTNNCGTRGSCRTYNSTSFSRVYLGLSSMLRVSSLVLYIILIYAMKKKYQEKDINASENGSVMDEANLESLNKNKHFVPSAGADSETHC

[13] = biological target: P-glycoprotein (P-gp) (Homo sapiens, UniProt P08183); assay: Inhibition of efflux transporter P-gp; type: in vitro ADME
[14] = tested on: CYP2B6; assay: In vitro studies: CYP2B6 induction; type: in vitro ADME
[15] = Pre- and postnatal development study in rats; type: in vivo, rat; conditions: female, rat, plasma, oral, rats, read-out: maternal plasma concentration
Method: (§1) In a pre- and postnatal development study in rats, elagolix was given in the diet to achieve doses of 0, 100 and 300 mg/kg/day (25 per dose group) from gestation day 6 to lactation day 20. […] Pup survival was decreased from birth to postnatal day 4. […] Smaller body size and effect on startle response were associated with lower pup weights at 300 mg/kg/day. Post-weaning growth, development and behavioral endpoints were unaffected.

[16] = tested on: rats; assay: Pre- and postnatal development study in rats; type: in vivo, rat; conditions: for maternal plasma concentration relative to maximal elagolix concentration (Cmax) in humans at the MRHD: rats
Method: as §1

[17] = Midazolam 2 mg single dose, elagolix 150 mg once daily ×13 days, N 11
[18] = Midazolam 2 mg single dose, elagolix 300 mg twice daily ×11 days, N 20
[19] = Digoxin 0.5 mg single dose, elagolix 200 mg twice daily ×10 days, N 11
[20] = Ketoconazole 400 mg once daily, N 11
[21] = Rifampin 600 mg single dose, N 12
[22] = rabbits, highest, maternally toxic dose
[23] = lactation day 21, 100 mg/kg/day
[24] = lactation day 21, 300 mg/kg/day

Sequence of CYP2C19 (P33261 whole entry): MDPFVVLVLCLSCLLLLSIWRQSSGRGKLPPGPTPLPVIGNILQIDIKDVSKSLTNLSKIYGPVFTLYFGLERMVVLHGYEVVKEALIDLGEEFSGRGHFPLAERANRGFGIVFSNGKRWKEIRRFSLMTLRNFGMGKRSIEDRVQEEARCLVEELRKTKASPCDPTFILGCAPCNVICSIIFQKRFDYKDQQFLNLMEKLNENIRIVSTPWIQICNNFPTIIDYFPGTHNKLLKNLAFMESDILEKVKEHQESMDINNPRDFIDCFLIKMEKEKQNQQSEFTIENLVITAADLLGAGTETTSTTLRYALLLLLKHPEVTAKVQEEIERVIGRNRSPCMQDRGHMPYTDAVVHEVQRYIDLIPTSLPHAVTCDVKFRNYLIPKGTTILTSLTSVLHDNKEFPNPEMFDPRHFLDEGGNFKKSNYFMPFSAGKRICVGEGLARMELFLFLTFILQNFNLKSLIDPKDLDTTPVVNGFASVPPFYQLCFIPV
Sequence of P-glycoprotein (P-gp) (P08183 whole entry): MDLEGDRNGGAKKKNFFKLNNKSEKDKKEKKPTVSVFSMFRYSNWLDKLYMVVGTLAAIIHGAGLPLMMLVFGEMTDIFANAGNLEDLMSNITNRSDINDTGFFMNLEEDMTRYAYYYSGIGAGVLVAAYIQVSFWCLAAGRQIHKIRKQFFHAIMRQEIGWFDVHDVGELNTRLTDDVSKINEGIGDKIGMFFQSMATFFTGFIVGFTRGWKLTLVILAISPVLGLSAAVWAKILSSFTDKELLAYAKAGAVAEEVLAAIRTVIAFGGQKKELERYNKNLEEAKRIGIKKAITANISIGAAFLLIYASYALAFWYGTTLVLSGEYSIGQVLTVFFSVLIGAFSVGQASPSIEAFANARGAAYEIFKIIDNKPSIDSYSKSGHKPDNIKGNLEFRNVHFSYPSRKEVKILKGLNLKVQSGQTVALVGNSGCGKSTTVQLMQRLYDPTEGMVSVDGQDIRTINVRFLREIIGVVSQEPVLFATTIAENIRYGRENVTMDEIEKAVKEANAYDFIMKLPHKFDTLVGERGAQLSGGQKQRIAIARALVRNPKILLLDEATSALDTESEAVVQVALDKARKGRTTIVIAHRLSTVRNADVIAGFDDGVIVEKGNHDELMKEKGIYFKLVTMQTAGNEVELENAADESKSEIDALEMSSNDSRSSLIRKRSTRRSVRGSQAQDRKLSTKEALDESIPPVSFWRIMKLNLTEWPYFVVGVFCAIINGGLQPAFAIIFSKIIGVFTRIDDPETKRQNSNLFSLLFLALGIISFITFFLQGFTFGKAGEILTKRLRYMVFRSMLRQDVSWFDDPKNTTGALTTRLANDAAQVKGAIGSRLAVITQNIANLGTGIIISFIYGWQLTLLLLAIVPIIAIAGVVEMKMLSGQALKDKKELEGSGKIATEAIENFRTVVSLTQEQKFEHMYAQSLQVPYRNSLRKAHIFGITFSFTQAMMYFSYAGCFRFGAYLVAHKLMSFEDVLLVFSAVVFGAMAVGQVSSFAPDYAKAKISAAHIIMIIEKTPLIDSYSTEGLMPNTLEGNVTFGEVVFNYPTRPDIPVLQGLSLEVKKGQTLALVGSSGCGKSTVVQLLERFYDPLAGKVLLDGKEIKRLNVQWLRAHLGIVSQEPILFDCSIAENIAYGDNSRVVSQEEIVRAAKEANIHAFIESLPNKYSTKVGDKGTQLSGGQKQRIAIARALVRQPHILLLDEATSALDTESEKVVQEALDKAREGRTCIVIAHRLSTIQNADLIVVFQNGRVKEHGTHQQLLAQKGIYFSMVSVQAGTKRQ
Sequence of P-gp (P08183 whole entry): as above

C#C[C@]1(OC(C)=O)CC[C@H]2[C@@H]3CCC4=CC(=O)CC[C@@H]4[C@H]3CC[C@@]21C [norethindrone acetate]
metabolism by CYP3A [1]: metabolized partially

Cc1ncc2n1-c1ccc(Cl)cc1C(c1ccccc1F)=NC2 [midazolam]
Ratio (90% CI) AUC, co-administration with elagolix vs medication alone [2, 17]: 0.65
Ratio (90% CI) Cmax, co-administration with elagolix vs medication alone [2, 17]: 0.81
Ratio (90% CI) AUC, co-administration with elagolix vs medication alone [2, 18]: 0.46
Ratio (90% CI) Cmax, co-administration with elagolix vs medication alone [2, 18]: 0.56
Effect on Plasma Exposure of Concomitant Drug (AUC) [3]: ↓ midazolam

C[C@H]1O[C@@H](O[C@H]2[C@@H](O)C[C@H](O[C@H]3[C@@H](O)C[C@H](O[C@H]4CC[C@@]5(C)[C@H](CC[C@@H]6[C@@H]5C[C@@H](O)[C@]5(C)[C@@H](C7=CC(=O)OC7)CC[C@]65O)C4)O[C@@H]3C)O[C@@H]2C)C[C@H](O)[C@@H]1O [digoxin]
Ratio (90% CI) AUC, co-administration with elagolix vs medication alone [2, 19]: 1.26
Ratio (90% CI) Cmax, co-administration with elagolix vs medication alone [2, 19]: 1.71
Effect on Plasma Exposure of Concomitant Drug (AUC) [3]: ↑ digoxin

COc1cccc(-c2c(C)n(Cc3c(F)cccc3C(F)(F)F)c(=O)n(C[C@H](NCCCC(=O)O)c3ccccc3)c2=O)c1F [elagolix, 4-((R)-2-[5-(2-fluoro-3-methoxy-phenyl)-3-(2-fluoro-6-trifluoromethyl-benzyl)-4-methyl-2,6-dioxo-3,6-dihydro-2H-pyrimidin-1-yl]-1-phenyl-ethylamino)-butyric acid]
CYP2C19 inhibition [4]: weak inhibitor
plasma concentrations in patients with two reduced function alleles of SLCO1B1 521T>C [5]: Higher
elagolix mean concentrations vs women with normal transporter function (SLCO1B1 521T/T) ([5]; expected): approximately 2 fold higher
Ratio (90% CI) AUC of elagolix, co-administration vs elagolix alone [6, 20]: 2.20
Ratio (90% CI) Cmax of elagolix, co-administration vs elagolix alone [6, 20]: 1.77
Ratio (90% CI) AUC of elagolix, co-administration vs elagolix alone ([6]; Rifampin 600 mg once daily): 1.65
Ratio (90% CI) Cmax of elagolix, co-administration vs elagolix alone ([6]; Rifampin 600 mg once daily): 2.00
Ratio (90% CI) AUC of elagolix, co-administration vs elagolix alone [6, 21]: 5.58
Ratio (90% CI) Cmax of elagolix, co-administration vs elagolix alone [6, 21]: 4.37
plasma concentrations of elagolix with concomitant rifampin ([6]; concomitant use of rifampin): increased
changes in elagolix exposures ([6]; elagolix 300 mg twice daily with rosuvastatin (20 mg once daily), sertraline (25 mg once daily) or fluconazole (200 mg single dose)): No clinically significant changes
dose with (increased) postimplantation loss, multiple of MRHD ([7]; pregnant rats, oral, organogenesis, mid dose group, based on AUC): 12 times the MRHD
fetal malformations ([7]; rat, any dose level tested): No fetal malformations
maternal deaths ([7]; rats, 300, 600 and 1200 mg/kg/day): six deaths
substrate of CYP3A [1]: substrate
fetal malformations ([8]; rabbit, any dose level tested): No fetal malformations
dose with spontaneous abortion and total litter loss, multiple of MRHD ([8]; rabbits, oral, organogenesis, highest, maternally toxic dose, based on AUC): 7 times the MRHD
total litter loss ([8]; rabbits, 150 mg/kg/day, non-maternally toxic): single total litter loss
spontaneous abortions [8, 22]: three spontaneous abortions
total litter loss [8, 22]: single total litter loss
dose with total litter loss, multiple of MRHD ([8]; rabbits, lower non-maternally toxic dose of 150 mg/kg/day): 4 times the MRHD
substrate of P-gp [9]: substrate
CYP3A4 / CYP3A induction [10]: weak to moderate inducer
binding to rat GnRH receptor relative to human GnRH receptor [11]: ~1000 fold less
substrate of OATP1B1 [12]: substrate
P-gp inhibition [13]: inhibitor
CYP2B6 induction [14]: weak to moderate inducer
concentration at 21 lactation day [15, 23]: 47 ng/mL
concentration at 21 lactation day [15, 24]: 125 ng/mL
pup birth weights ([16]; 300 mg/kg/day): lower birth weights
dams failing to deliver ([16]; highest dose (300 mg/kg/day)): one failed to deliver
dams with total litter loss ([16]; highest dose (300 mg/kg/day)): two dams
pup survival ([16]; highest dose, birth to postnatal day 4): decreased
post-weaning growth, development and behavioral endpoints ([16]; rat, in vivo): unaffected
maternal plasma concentration relative to maximal elagolix concentration (Cmax) in humans at the MRHD [16, 23]: 0.04 fold
maternal plasma concentration relative to maximal elagolix concentration (Cmax) in humans at the MRHD [16, 24]: 0.1 fold

C[C@]12CC[C@@H]3c4ccc(O)cc4CC[C@H]3[C@@H]1CC[C@@H]2O [estradiol]
metabolism by CYP3A [1]: metabolized partially
